Assay results as given in patent EP1298214A2, “Plant thioesterases” (Calgene LLC, priority 1990, dated 1991).

System: Cuphea C10-preferring acyl-ACP thioesterase (preparation from Example 9C)
Assay: Acyl-ACP hydrolysis by the Cuphea preparation from Example 9C
Type: biochemical, Cuphea hookeriana
Conditions: 0.5µM acyl-ACP, pH 9, 30°C for 60 min; corrected for non-enzymatic hydrolysis
Description: As a more preferred alternative to Example 9A or 9B, forty grams of polyvinylpolypyrrolidone (PVPP) are mixed with 550 ml "extraction buffer" comprising 200 mM bis-Tris-HCl pH 6., 10mM 2-mercaptoethanol, 1% (w/v) polyvinylpyrrolidone-10. To this mixture are added 40g frozen Cuphea seeds. The mixture is then blended in a Polytron homogenizer until no intact seeds remain and the slurry is smooth. This and all subsequent steps are conducted at 0-4°C. The preparation is centrifuged at 12,000xg for 20 min and further clarified by filtration through Miracloth.
This preparation is mixed with 100ml of settled hydroxyapatite which has been equilibrated with "buffer A" (50mM bis-Tris-HCl pH 6., […] 2-mercaptoethanol). Three extract volumes of 10mM 2-mercaptoethanol are then added slowly over 30 min, with constant stirring. The hydroxyapatite gel is collected on a sintered glass funnel and rinsed with buffer A until the effluent is colorless. The collected hydroxyapatite is then transferred to a column and further rinsed with buffer A at 2ml/min until the column is packed. A 400ml elution gradient is applied (2ml/min), from buffer A to buffer B (300mM potassium phosphate pH 6.9 in buffer A). Effluent fractions are assayed for hydrolysis of 10:0-ACP. Two overlapping peaks of activity are obtained. The fractions comprising the later-eluting peak are pooled and dialyzed against buffer A.
The dialyzed material is applied at 1.3ml/min to a 2.5 x 6.5cm column of Blue 4 Agarose (Sigma Chemical Co.; St. Louis, MO) equilibrated with buffer A. The column is washed with buffer A, and enzyme activity is subsequently eluted with a 400ml gradient from buffer A to buffer C (buffer A containing 1M NaCl). The eluted fractions contain three peaks of 10:0-ACP hydrolysis activity. Those fractions comprising the second peak to elute (eluted by approximately 0.4m NaCl) are pooled and dialyzed against buffer A. […]
The preparation from Example 9C is relatively selective in its hydrolysis of acyl-ACP thioesters, as shown in the following table: (These activities were determined as follows. Twenty five µl of sample were added to 75µl assay buffer comprising 100mM glycine-KOH pH 9, 0.2% (w/v) CHAPS, 10mM 2-mercaptoethanol, and containing radiolabeled acyl-ACP for a final concentration of 0.5µM. After incubation at 30°C for 60 min, the reaction was terminated by addition of 0.5ml 10% (v/v) acetic acid, and the liberated fatty acid product was extracted with 1ml diethyl ether. Enzyme activity was measured by the radioactivity of this ether extract, determined by liquid scintillation counting. […]

First: 14:0-ACP
Second: 16:0-ACP
The Activity of the first is lower: 30 cpm for the first, 262 cpm for the second.

Compared with decanoyl-ACP [10:0-ACP], lauroyl-ACP [12:0-ACP] is lower in Activity: 1010 cpm for the first, 393 cpm for the second.
